{"source": "patent US6812256B2", "about": "“Polysubstituted indan-1-ol systems for the prophylaxis or treatment of obesity” (Aventis Pharma Deutschland GmbH, priority 2001, dated 2004)", "test_system": "female NMRI mice", "test": "Anorectic action: cumulative milk consumption after 24 h removal of feed", "format": "in vivo", "conditions": "30 mg/kg i.p.", "experimental": "The anorectic action was tested on female NMRI mice. After removal of feed for 24 hours, the preparation to be tested was administered intraperitoneally (i.p.) or by gavage (po). The animals were housed singly and, with free access to drinking water, they were offered evaporated milk 30 minutes after administration of the preparation. The consumption of evaporated milk was determined and the general behavior of the animals was monitored every half an hour for 7 hours. The measured milk consumption was compared to that of vehicle-treated control animals.", "data": [{"molecule": "CC1(O)c2ccc(Cl)cc2CC1(F)S(C)(=O)=O", "note": "(centres unmarked) [Example 1, 5-Chloro-2-fluoro-2-methanesulfonyl-1-methyl-indan-1-ol]", "values": [{"measurement": "Reduction in cumulative milk consumption as % of the control", "setting": "compared with control animals", "result": 25, "unit": "%"}, {"measurement": "cumulative milk consumption by treated animals", "setting": "feed removed for 24 h, evaporated milk offered 30 min after administration, monitored for 7 hours", "result": "4/2.88 ml"}]}]}
